Results as given in US5770617A, “Terbenzimidazoles useful as antifungal agents” (Rutgers, The State University of New Jersey, priority 1997, dated 1998).
“Also recorded” adds a separate entry of the source.

Key:
[1] = target: T1, Aspergillus topoisomerase I (Aspergillus nidulans, UniProt Q5BGS7); assay: Topoisomerase I cleavage assay, Aspergillus enzyme; assay type: biochemical; settings: DNA cleavage assay
T1 construct: about 105 kDa by phosphate transfer
T1 sequence (Q5BGS7 1-871): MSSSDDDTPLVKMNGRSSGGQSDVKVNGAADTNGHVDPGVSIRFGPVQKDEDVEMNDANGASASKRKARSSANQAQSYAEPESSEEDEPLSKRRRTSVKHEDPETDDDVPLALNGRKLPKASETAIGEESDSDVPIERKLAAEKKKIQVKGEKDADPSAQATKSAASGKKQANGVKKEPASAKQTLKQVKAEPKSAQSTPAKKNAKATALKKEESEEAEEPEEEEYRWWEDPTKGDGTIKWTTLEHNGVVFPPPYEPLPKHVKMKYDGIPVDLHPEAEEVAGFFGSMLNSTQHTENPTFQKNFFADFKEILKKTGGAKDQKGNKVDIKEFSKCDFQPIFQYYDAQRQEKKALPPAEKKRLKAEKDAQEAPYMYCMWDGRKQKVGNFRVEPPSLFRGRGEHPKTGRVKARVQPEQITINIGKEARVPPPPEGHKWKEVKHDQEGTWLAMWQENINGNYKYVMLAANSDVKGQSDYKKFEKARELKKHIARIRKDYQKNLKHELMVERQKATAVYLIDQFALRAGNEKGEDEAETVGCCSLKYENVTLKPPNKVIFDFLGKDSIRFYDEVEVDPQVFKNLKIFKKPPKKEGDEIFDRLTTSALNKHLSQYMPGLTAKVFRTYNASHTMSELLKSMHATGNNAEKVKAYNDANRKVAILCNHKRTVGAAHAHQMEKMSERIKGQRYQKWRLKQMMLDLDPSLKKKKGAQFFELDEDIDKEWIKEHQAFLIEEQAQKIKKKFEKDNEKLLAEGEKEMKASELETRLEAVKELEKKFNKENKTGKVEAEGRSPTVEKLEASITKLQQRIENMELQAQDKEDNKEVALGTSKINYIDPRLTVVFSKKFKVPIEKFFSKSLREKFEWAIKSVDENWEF
Procedure: Two liters of YG medium (0.5% yeast extract and 2% glucose) were inoculated with approximately 5×10^8 conidia/ml. After 16 hours of growth at 37° C., the mycelia were collected, washed with Buffer I (50 mM Tris-HCl, pH 7.7, 1 mM EDTA, 1 mM EGTA, 10% glycerol, 1 mM phenylmethylsulfonyl fluoride and 1 mM 2-mercaptoethanol), and quickly chilled in liquid nitrogen. The frozen mycelia (approximately 20 grams) were ground to powder and resuspended in 300 ml of Buffer I. The lysate was centrifuged at 10K rpm in a Sorval HB3 Rotor for 15 minutes to remove cell debris. The supernatant was made 6% in polyethylene glycol (v/v) and 1M NaCl. After one hour on ice with gentle stirring, the solution was centrifuged at 14K rpm in a Sorvall Rotor for 30 minutes to remove nucleic acids.
Subsequent steps in purification were the same as described previously for purification of recombinant human DNA topoisomerase I (B. Gatto et al., Cancer Res., 56, 2795 (1996)). Briefly, the supernatant was chromatographed directly onto a hydroxyapatite Bio-gel HTP (BioRad Laboratories, Richmond, Calif.) column. Fractions containing relaxation activity were pooled, diluted and then loaded onto a BioRex70 column (BioRad Laboratories, Richmond, Calif.). The column was developed with a linear gradient from 0.2 to 1M KCl. The peak fractions were pooled and dialyzed overnight at 4° C. against 30 mM potassium phosphate, 50% glycerol (v/v), 0.5 mM EDTA, and 1 mM DTT. Recombinant human topoisomerase I was purified from Escherichia coli BL21 (DE3) harboring PET1B as described previously (Gatto et al., Cancer Res., 56, 2795 (1996)).
DNA topoisomerase I cleavage assays were performed as described by Y.-H. Hsiang et al., J. Biol. Chem., 260, 14873 (1985). YEpG DNA was linearized with BamHI and then 3 '-end-labeled with Klenow polymerase and α[-^32 P]dCTP. Following phenol extraction and ethanol precipitation, the labeled DNA was resuspended in 10 mM Tris, pH 8.0, and 1 mM EDTA. The DNA cleavage assay was done in a reaction mixture (20 μl) containing 40 mM Tris-HCl, pH 7.8, 100 mM KCl, 10 mM MgCl2, 0.5 mM dithiothreitol, 0.5 mM EDTA, 30 μg/ml bovine serum albumin, 20 ng of labeled YEpG DNA, and […] of Aspergillus or human topoisomerase I diluted to various extents. Following incubation at 23° C. for 15 minutes, the reactions were terminated by the addition of SDS (final concentration 1%) and proteinase K (final concentration 200 μg/ml). Proteinase K treatment continued at 37° C. for another 1 hour. The terminated reactions were either alkali-denatured and then loaded (alkaline loading) or loaded directedly in neutral loading buffer (neutral loading) onto a 1% agarose gel in neutral TPE electrophoresis solution. Gel drying and autoradiography were performed as described by Hsiang et al., cited above.

human topoisomerase I = target: T2, human topoisomerase I (Homo sapiens, UniProt P11387); settings: cited from earlier work
T2 construct: made in house; host or cells: Escherichia coli BL21 (DE3) harboring PET1B
T2 sequence (P11387 1-765): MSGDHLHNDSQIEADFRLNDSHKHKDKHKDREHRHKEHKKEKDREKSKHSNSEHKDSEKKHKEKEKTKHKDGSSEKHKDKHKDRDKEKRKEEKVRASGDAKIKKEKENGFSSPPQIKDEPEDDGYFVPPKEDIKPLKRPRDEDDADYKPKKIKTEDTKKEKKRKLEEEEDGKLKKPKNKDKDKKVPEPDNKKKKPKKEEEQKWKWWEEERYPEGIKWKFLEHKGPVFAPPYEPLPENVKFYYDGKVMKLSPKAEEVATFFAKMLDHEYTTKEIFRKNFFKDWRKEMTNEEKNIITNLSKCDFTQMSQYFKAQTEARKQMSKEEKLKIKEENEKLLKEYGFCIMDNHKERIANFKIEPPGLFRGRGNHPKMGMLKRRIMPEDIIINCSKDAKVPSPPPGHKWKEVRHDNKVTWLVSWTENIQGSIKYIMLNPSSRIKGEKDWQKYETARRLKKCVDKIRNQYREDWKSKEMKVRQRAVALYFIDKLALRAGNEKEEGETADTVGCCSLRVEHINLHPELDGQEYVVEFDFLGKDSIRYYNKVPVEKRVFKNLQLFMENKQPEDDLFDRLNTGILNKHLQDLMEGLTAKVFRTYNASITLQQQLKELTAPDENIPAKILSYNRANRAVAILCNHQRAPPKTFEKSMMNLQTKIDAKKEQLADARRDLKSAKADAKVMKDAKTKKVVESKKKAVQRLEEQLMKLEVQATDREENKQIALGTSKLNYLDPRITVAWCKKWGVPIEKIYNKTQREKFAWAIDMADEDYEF

[2] = target: T3, calf thymus topoisomerase I (Bos taurus, UniProt F1MN93); assay: Topoisomerase I-mediated DNA cleavage assay (calf thymus enzyme); assay type: biochemical; settings: concentration relative to Hoechst 33342 (arbitrarily 1) producing the same cleavage on plasmid DNA; calf thymus topoisomerase I
T3 construct: DNA topoisomerase I was purified from calf thymus gland as reported previously; from tissue; host or cells: calf thymus gland
T3 sequence (F1MN93 1-767): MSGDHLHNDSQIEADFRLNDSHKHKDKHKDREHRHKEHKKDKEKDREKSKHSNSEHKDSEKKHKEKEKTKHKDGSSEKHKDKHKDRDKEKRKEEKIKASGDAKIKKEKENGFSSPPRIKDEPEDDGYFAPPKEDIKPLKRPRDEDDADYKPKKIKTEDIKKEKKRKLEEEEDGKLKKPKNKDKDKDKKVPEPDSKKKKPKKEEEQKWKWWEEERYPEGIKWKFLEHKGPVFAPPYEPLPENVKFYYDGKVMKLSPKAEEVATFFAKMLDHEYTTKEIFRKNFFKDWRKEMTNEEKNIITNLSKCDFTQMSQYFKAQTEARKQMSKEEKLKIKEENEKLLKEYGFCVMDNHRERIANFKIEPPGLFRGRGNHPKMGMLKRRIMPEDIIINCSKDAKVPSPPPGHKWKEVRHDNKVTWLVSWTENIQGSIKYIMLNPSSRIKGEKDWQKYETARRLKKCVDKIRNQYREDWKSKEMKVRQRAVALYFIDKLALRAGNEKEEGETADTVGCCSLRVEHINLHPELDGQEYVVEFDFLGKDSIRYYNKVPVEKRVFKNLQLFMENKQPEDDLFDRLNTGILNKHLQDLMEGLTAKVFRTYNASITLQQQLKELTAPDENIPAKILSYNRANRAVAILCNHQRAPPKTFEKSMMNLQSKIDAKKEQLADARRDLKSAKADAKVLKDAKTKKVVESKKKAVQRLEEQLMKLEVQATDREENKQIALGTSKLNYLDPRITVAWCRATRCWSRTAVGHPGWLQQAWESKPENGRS
From the text: A. Topoisomerase I-Mediated DNA Cleavage Assays
DNA topoisomerase I was purified from calf thymus gland as reported previously by B. D. Halligan et al., J. Biol. Chem., 260, 2475 (1985).
Plasmid YEpG was also purified by the alkali lysis method followed by phenol deproteination and CsCl/ethidium isopycnic centrifugation as described by T. Maniatis et al., Molecular Cloning, A Laboratory Manual, Cold Spring Harbor Labs, N.Y. (1982) at pages 149-185. The end-labeling of the plasmid was accomplished as previously described by L. F. Liu et al., J. Biol. Chem., 258, 15365 (1983). The cleavage assays were performed as previously reported by A. Y. Chen et al., Cancer Res., 53, 1332 (1993). Human topoisomerase I was isolated as a recombinant fusion protein using a T7 expression system.

| Structure (SMILES) | inhibition (poisoning) of Aspergillus topoisomerase I, in words [1] | inhibition of human topoisomerase I, in words (known / previously disclosed) (human topoisomerase I) | Topo I-mediated DNA cleavage (REC, Relative Effective Concentration) [2] |
| --- | --- | --- | --- |
| N=C(N)c1ccc(N=NNc2ccc(C(=N)N)cc2)cc1 [Berenil, berenil] | inactive | inactive | – |
| c1ccc2[nH]c(-c3ccc4[nH]c(-c5ccc6[nH]cnc6c5)nc4c3)nc2c1 [Compound 10, 2-[2'-(Benzimidazol-5"-yl)benzimidazol-5'-yl]benzimidazole] | – | – | 1.1 |
| c1ccc(-c2ccc3[nH]c(-c4ccc5[nH]c(-c6ccc7[nH]cnc7c6)nc5c4)nc3c2)nc1 [Compound 14, 5-(2-Pyridyl)-2-[2'-(benzimidazol-5"-yl)benzimidazol-5'-yl]benzimidazole] | – | – | 3.3 |
| c1cncc(-c2ccc3[nH]c(-c4ccc5[nH]c(-c6ccc7[nH]cnc7c6)nc5c4)nc3c2)c1 [Compound 15, 5-(3-Pyridyl)-2-[2'-(benzimidazol-5"-yl)benzimidazol-5'-yl]benzimidazole] | – | – | 2 |
| c1cc(-c2ccc3[nH]c(-c4ccc5[nH]c(-c6ccc7[nH]cnc7c6)nc5c4)nc3c2)ccn1 [Compound 16, 5-(4-Pyridyl)-2-[2'-(benzimidazol-5"-yl)benzimidazol-5'-yl]benzimidazole] | – | – | 2 |
| N#Cc1ccc2[nH]c(-c3ccc4[nH]cnc4c3)nc2c1 [Compound 19, 5-Cyano-2-(benzimidazol-5'-yl)benzimidazole] | – | – | 1000 |
| Clc1ccc(-c2ccc3[nH]c(-c4ccc5[nH]c(-c6ccc7[nH]cnc7c6)nc5c4)nc3c2)cc1 [JSKIV-47, 5-(p-Chlorophenyl)-2-[2'-(benzimidazol-5"-yl)benzimidazol-5'-yl]-benzimidazole] | – | – | 10 |
| Clc1ccc2[nH]c(-c3ccc4[nH]c(-c5ccc6[nH]cnc6c5)nc4c3)nc2c1 [JSKIV-68, 5-Chloro-2-[2'-(benzimidazol-5"-yl)benzimidazol-5'-yl]-benzimidazole] | – | – | 1 |
| COc1ccc(-c2nc3ccc(C(F)(F)F)cc3[nH]2)cc1 [QS/II/50] | None of the mono-benzimidazoles, including QS/II/50, QS/II/51, QS/II/59A, an QS/II/9, exhibited any inhibitory effect | – | – |
| CCOc1ccc(-c2nc3ccc(-c4nc5cc(CCCN(C)C)ccc5[nH]4)cc3[nH]2)cc1 [compound 2 wherein n is 3] | selective sensitivity | – | – |
| COc1cc2cc3c4cc(OC)c(OC)cc4cc[n+]3c(C)c2cc1OC [coralyne] | completely resistant; also recorded: did not inhibit Aspergillus topoisomerase I to any significant extent | highly potent inhibitors | – |
